From US20080090805A1, “CB-1 MODULATING COMPOUNDS AND THEIR USE” (ACADIA PHARMACEUTICALS INC., priority 2005, published 2008)

Target: CB1 (mutant) (Homo sapiens, UniProt P21554)
Test: R-SAT functional receptor assay, CB1 (mutant, truncated after amino acid 417)
Format: cell-based
Settings: Appendix A, R-SAT CB1; for IC50: receptor form (mutant or wild-type) not stated, read-out: pIC50 (converted); for Emax: receptor form not stated, relative to SR141716 (100%), read-out: % Inhibition

Sequence of CB1 (mutant) (P21554 1-417, change not shown): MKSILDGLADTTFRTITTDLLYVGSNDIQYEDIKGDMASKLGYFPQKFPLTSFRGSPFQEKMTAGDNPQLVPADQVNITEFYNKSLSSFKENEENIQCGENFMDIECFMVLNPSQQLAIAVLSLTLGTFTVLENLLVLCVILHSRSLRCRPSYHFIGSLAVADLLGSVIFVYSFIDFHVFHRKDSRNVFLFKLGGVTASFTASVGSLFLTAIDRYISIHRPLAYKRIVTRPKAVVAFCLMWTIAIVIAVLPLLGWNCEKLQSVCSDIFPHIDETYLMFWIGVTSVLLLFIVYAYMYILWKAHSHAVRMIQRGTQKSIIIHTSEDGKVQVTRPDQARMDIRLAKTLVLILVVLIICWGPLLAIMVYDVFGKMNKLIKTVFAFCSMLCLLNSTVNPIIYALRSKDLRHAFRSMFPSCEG

Row | Compound | IC50 [nM] | Emax [%]
1 | CCCCC(=O)c1ccc2c(c1)N=C(C1CCCCC1)c1ccccc1S2 | 50.1 | 37
2 | O=C(NCc1ccncc1)c1ccc2c(c1)N=C(c1cccc(F)c1)c1ccccc1S2 | 50.1 | 95
3 | O=C(NCc1ccccn1)c1ccc2c(c1)N=C(c1ccc(F)cc1)c1ccccc1S2 | 63.1 | 90
4 | O=C(NN1CCOCC1)c1ccc2c(c1)N=C(C1CCCCC1)c1ccccc1S2 | 63.1 | 56
5 | O=C(c1ccc2c(c1)N=C(c1ccccc1F)c1ccccc1S2)N1CCCCC1 | 79.4 | 73
6 | N#Cc1ccc(C2=Nc3cc(C(=O)NCc4ccccn4)ccc3Sc3ccccc32)cc1 | 79.4 | 99
7 | CC(C)CNC(=O)c1ccc2c(c1)N=C(c1ccc(Cl)cc1Cl)c1ccccc1S2 | 79.4 | 87
8 | C=C(/C=C\C1=CN=C(CCC)c2ccccc2S1)C(=O)NC1CCCC1 | 79.4 | 109
9 | O=C(NCCc1cccnc1)c1ccc2c(c1)N=C(c1ccccc1F)c1ccccc1S2 | 79.4 | 110
10 | O=C(NC1CCCCNC1=O)c1ccc2c(c1)N=C(c1ccc(Cl)cc1)c1ccccc1S2 (centres unmarked) | 100 | 81
11 | O=C(NNC(O)c1ccc2c(c1)N=C(c1cccc(Br)c1)c1ccccc1S2)c1ccccc1 (centres unmarked) | 100 | 76
12 | CCCCN(C)C(=O)c1ccc2c(c1)N=C(c1ccc(Cl)s1)c1ccccc1S2 | 100 | 87
13 | Cc1ccsc1C1=Nc2cc(C(=O)NCc3cccnc3)ccc2Sc2ccccc21 | 100 | 102
14 | Cc1cccnc1C1=Nc2cc(C(=O)NCc3cccs3)ccc2Sc2ccccc21 | 100 | 97
15 | CCCCNC(=O)c1ccc2c(n1)N=C(c1ccccc1)c1ccccc1S2 | 12.6 | 98
16 | CCCC1=NC2=C(CCC(C(=O)NCCc3ccc(OCC)cc3)=C2)Sc2ccccc21 | 158 | 102
17 | O=C(NN1CCCCC1)c1ccc2c(c1)N=C(c1ccccc1)c1ccccc1O2 | 158 | 57

Row | Compound | IC50 [nM] | Emax [%]
18 | O=C(NC1CCCC1)c1ccc2c(c1)N=C(c1ccccn1)c1ccccc1S2 | 158 | 81
19 | CCCCN(C)C(=O)c1ccc2c(c1)N=C(c1sccc1C)c1ccccc1S2 | 158 | 72
20 | Cc1cccnc1C1=Nc2cc(C(=O)NC3CCCC3)ccc2Sc2ccccc21 | 1000 | 57
21 | O=C(NCc1ccco1)c1ccc2c(c1)N=C(c1ccccn1)c1ccccc1S2 | 31.6 | 102
22 | CCCNC1=Nc2cc(C(=O)NN3CCCCC3)ccc2Sc2ccccc21 | 1580 | 89
23 | CON(C)C(=O)c1ccc2c(c1)N=C(c1ccc(Cl)cc1F)c1ccccc1S2 | 1580 | 46
24 | NS(=O)(=O)c1ccc(CNC(=O)c2ccc3c(c2)N=C(NCc2ccc(Cl)cc2)c2ccccc2S3)cc1 | 1580 | 41
25 | O=C(NN1CCCCC1)c1ccc2c(c1)N=C(Nc1ccccc1)c1ccccc1S2 | 2000 | 92
26 | CCCC1=Nc2cc(C(=O)NCCCN(CC)CC)ccc2Sc2ccccc21 | 2510 | 125
27 | CCCC1=Nc2cc(C(=O)N3CCC(N4CCCCC4)CC3)ccc2Sc2ccccc21 | 2510 | 128
28 | CCONC(=O)c1ccc2c(c1)N=C(c1ccc(Cl)cc1Cl)c1ccccc1S2 | 3160 | 37
29 | CCOC(=O)c1ccc(C2=Nc3cc(C(=O)NNC(=O)Cc4ccccc4)ccc3Sc3ccccc32)cc1 | 3160 | 61
30 | O=C(NOc1cccc(Cl)c1)c1ccc2c(c1)N=C(C1CCCCC1)c1cc(F)ccc1S2 | 39.8 | 100
31 | O=C(c1ccc2c(c1)N=C(c1cccc(Cl)c1)c1ccccc1S2)N1CCCCC1 | 39.8 | 80
32 | Cc1cccnc1C1=Nc2cc(C(=O)NCc3cccnc3)ccc2Sc2ccccc21 | > 126 | 39
33 | Cc1cc(NC(=O)c2ccc3c(c2)N=C(c2cccc(F)c2)c2ccccc2S3)no1 | > 1260 | 29
34 | Cc1cccnc1C1=Nc2cc(C(=O)NCCc3cccnc3)ccc2Sc2ccccc21 | > 5010 | 28

Now from value to compound:

Row | IC50 [nM] | Emax [%] | Compound
35 | 50.1 | 118 | CCCC1=Nc2cc(C(=O)NCCC3=CCCCC3)ccc2Sc2ccccc21
36 | 50.1 | 77 | COc1ccc(C2=Nc3cc(C(=O)NNC(=O)Cc4ccccc4)ccc3Sc3ccccc32)cc1
37 | 50.1 | 55 | CCCCC1=Nc2cc(C(=O)NC)ccc2Sc2ccccc21
38 | 63.1 | 98 | CCONC(=O)c1ccc2c(c1)N=C(c1ccc(F)cc1)c1ccccc1S2
39 | 63.1 | 93 | COc1ccc(C2=Nc3cc(C(=O)NCc4ccccn4)ccc3Sc3ccccc32)cc1
40 | 63.1 | 94 | Cc1cccnc1C1=Nc2cc(C(=O)NCCC(C)C)ccc2Sc2ccccc21
41 | 63.1 | 97 | CCCC1=Nc2cc(C(=O)NC(C)c3ccccc3)ccc2Sc2ccccc21 (centres unmarked)
42 | 63.1 | 91 | CCONC(=O)c1ccc2c(c1)N=C(c1ccc(Cl)cc1)c1ccccc1S2
43 | 63.1 | 103 | CCCC1=Nc2cc(C(=O)NCCCN(CC(C)C)CC(C)C)ccc2Sc2ccccc21
44 | 63.1 | 105 | CCCC1=Nc2cc(C(=O)NCCN(CC(C)C)CC(C)C)ccc2Sc2ccccc21
45 | 63.1 | 117 | CCCC1=Nc2cc(C(=O)NCCCOC(C)C)ccc2Sc2ccccc21
46 | 63.1 | 88 | COCCNC(=O)c1ccc2c(c1)N=C(c1sccc1C)c1ccccc1S2
47 | 63.1 | 104 | COCCNC(=O)c1ccc2c(c1)N=C(c1ccc(Cl)cc1F)c1ccccc1S2
48 | 63.1 | 92 | CCCCN(C)C(=O)c1ccc2c(c1)N=C(c1ccc(Cl)cc1)c1ccccc1S2
49 | 63.1 | 90 | CCCCN(C)C(=O)c1ccc2c(c1)N=C(c1cccc(F)c1)c1ccccc1S2
50 | 63.1 | 106 | CCCCNC(=O)c1ccc2c(c1)N=C(c1ccc(Cl)cc1)c1ccccc1S2(=O)=O
51 | 79.4 | 78 | CCCNC(=O)c1ccc2c(c1)N=C(c1ccccc1Cl)c1ccccc1S2
52 | 79.4 | 80 | O=C(NN1CCOCC1)c1ccc2c(c1)N=C(c1cccc(Cl)c1)c1ccccc1S2
53 | 79.4 | 112 | CCCC1=Nc2cc(C(=O)NC(C)C34CC5CC(CC(C5)C3)C4)ccc2Sc2ccccc21 (centres unmarked)
54 | 79.4 | 90 | CCOCCNC(=O)c1ccc2c(c1)N=C(c1ccc(OC)cc1)c1ccccc1S2
55 | 79.4 | 90 | CCONC(=O)c1ccc2c(c1)N=C(c1cccc(Cl)c1)c1ccccc1S2
56 | 100 | 97 | CCCCN(C)C(=O)c1ccc2c(c1)N=C(c1ccc(OC)cc1)c1ccccc1S2
57 | 100 | 99 | CCCCN(CCCNC(=O)c1ccc2c(c1)N=C(CCC)c1ccccc1S2)Cc1ccccc1
58 | 100 | 99 | COCCNC(=O)c1ccc2c(c1)N=C(c1ccccc1F)c1ccccc1S2

Row | IC50 [nM] | Emax [%] | Compound
59 | 100 | 105 | CCCC1=Nc2cc(C(=O)NC(C)CC)ccc2Sc2ccccc21 (centres unmarked)
60 | 100 | 101 | Cc1ccsc1C1=Nc2cc(C(=O)NCCc3ccncc3)ccc2Sc2ccccc21
61 | 158 | 78 | O=C(NCc1ccccn1)c1ccc2c(c1)N=C(N1CCCCC1)c1ccccc1S2
62 | 158 | 92 | O=C(NN1CCCC1)c1ccc2c(c1)N=C(c1ccc(F)cc1)c1ccccc1S2
63 | 158 | 95 | CCCC1=Nc2cc(C(=O)NCCCSC3CCCCC3)ccc2Sc2ccccc21
64 | 158 | 91 | COc1ccccc1C1=Nc2cc(C(=O)NCC(C)C)ccc2Sc2ccccc21
65 | 158 | 77 | CCOCCNC(=O)c1ccc2c(c1)N=C(c1ccc(C(=O)OCC)cc1)c1ccccc1S2
66 | 158 | 90 | CCCC1=Nc2cc(C(=O)N3CCN(c4cc(C)ccc4C)CC3)ccc2Sc2ccccc21
67 | 1000 | 67 | CONC(=O)c1ccc2c(c1)N=C(c1cccc(F)c1)c1ccccc1S2
68 | 31.6 | 107 | CCCCN(C)C(=O)c1ccc2c(c1)N=C(c1ccc(F)cc1)c1ccccc1S2
69 | 1580 | 87 | CCCSCCCNC(=O)c1ccc2c(c1)N=C(CCC)c1ccccc1S2
70 | 39.8 | 116 | CCCNC(=O)c1ccc2c(c1)N=C(c1ccccn1)c1ccccc1S2
71 | 1580 | 133 | CCCC1=Nc2cc(C(=O)NCC3CCCN3CC)ccc2Sc2ccccc21 (centres unmarked)
72 | 1580 | 131 | CCCC1=Nc2cc(C(=O)NCCN(CC)CC)ccc2Sc2ccccc21
73 | 1580 | 77 | CCCC1=Nc2cc(C(=O)NCc3ccc4c(c3)OCO4)ccc2Sc2ccc(C)cc21
74 | 2000 | 123 | CCCC1=Nc2cc(C(=O)NCCN(C)C3CCCCC3)ccc2Sc2ccccc21
75 | 2510 | 120 | CCCC1=Nc2cc(C(=O)NCCCN3CCN(C)CC3)ccc2Sc2ccccc21
76 | 2510 | 88 | CCCC1=Nc2cc(C(=O)N3CCN(C(=O)c4ccco4)CC3)ccc2Sc2ccccc21
77 | 2510 | 79 | CCCC1=Nc2cc(C(=O)NCCCN3CCN(c4ccc(OC)cc4)CC3)ccc2Sc2ccccc21
78 | 39.8 | 95 | CCCC1=Nc2cc(C(=O)NC(C)CCc3ccccc3)ccc2Sc2ccccc21 (centres unmarked)
79 | 3160 | 138 | CCCC1=Nc2cc(C(=O)NCCN3CCCC3)ccc2Sc2ccccc21
80 | 3160 | 84 | CCCC1=Nc2cc(C(=O)NCCN3CCN(c4cccc(C)c4C)CC3)ccc2Sc2ccccc21
81 | 39.8 | 97 | CCCNC(=O)c1ccc2c(c1)N=C(c1ccccc1F)c1ccccc1S2
82 | 39.8 | 107 | CCCC1=Nc2cc(C(=O)NCC(OCC)OCC)ccc2Sc2ccccc21
